Source: patent US20130189186A1, “APOPTOSIS IMAGING AGENTS BASED ON LANTIBIOTIC PEPTIDES” (GE HEALTHCARE LIMITED, priority 2010, published 2013)

Test system: phosphatidyl ethanolamine
Experiment: Biacore affinity for phosphatidyl ethanolamine (POPE/POPC liposomes captured on L1 chip)
Assay type: binding
Settings: Biacore 3000, L1 chip, POPE/POPC liposomes (20% PE)
Excerpt: A Biacore 3000 (GE Healthcare, Uppsala) was equipped with an L1 chip. Liposomes made of POPE/POPC (20% PE) were applied for the affinity study using the capture technique recommended by the manufacturer. Each run consisted of activation of the chip surface, immobilization of liposomes, binding of peptide and wash off of both liposomes and peptide (regeneration). Similar applications can be found in Frostell-Karlsson et al [Pharm. Sciences, V.94 (1), (2005)]. Thorough washing of needle, tubing and liquid handling system with running buffer was performed after each cycle.
BIACORE software: The BIACORE control software including all method instructions was applied. A method with commands was also written in the BIACORE Method Definition Language (MDL) to have full control over pre-programmed instructions. BIACORE evaluation software was applied for analysing the sensorgrams.

## Duramycin
  ka: ~20000 M⁻¹ s⁻¹
